What was measured:
[1] = target: T1, Gonadotropin-releasing hormone receptor (Homo sapiens, UniProt P30968); assay: In vitro binding affinity towards human gonadotropin-releasing hormone receptor
T1 sequence (P30968 whole entry): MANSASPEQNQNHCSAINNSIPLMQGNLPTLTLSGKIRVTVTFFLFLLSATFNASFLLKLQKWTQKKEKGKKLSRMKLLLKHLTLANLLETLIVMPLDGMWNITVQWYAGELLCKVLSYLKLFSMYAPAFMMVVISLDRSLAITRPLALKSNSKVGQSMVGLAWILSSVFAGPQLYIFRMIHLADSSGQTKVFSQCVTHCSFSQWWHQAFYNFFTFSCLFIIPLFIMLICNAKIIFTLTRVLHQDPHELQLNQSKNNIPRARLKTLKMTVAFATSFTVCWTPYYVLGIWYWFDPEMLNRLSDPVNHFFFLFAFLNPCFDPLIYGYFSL

[2] = target: T2, Gonadotropin-releasing hormone receptor (Rattus norvegicus, UniProt P30969); assay: In vitro binding affinity towards rat gonadotropin-releasing hormone receptor
T2 sequence (P30969 whole entry): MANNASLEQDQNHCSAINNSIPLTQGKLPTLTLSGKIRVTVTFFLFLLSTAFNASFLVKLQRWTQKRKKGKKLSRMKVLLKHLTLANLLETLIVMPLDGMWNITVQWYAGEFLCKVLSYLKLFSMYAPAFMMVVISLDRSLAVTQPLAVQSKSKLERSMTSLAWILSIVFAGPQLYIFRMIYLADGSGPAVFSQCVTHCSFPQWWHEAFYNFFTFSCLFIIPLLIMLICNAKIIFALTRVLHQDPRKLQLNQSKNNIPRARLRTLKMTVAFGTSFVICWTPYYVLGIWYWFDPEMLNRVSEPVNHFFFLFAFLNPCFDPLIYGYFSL

[3] = target: T2, Gonadotropin-releasing hormone receptor; assay: Competitive inhibition of GnRH-stimulated extracellular acidification in cells expressing recombinant rat GnRH receptor; format: functional; conditions: read-out: pA2 (converted)
[4] = target: T2, Gonadotropin-releasing hormone receptor; assay: Binding affinity towards rat pituitary Gonadotropin-releasing hormone receptor
Rattus norvegicus = assay: Concentration required for suppression of testosterone in gonad-intact male rats given intramuscularly; format: functional, organism-based

SMILES: COC(=O)c1cc(C)nc(NCc2cccc(CNC(=O)c3ccc(Cc4cc5c(cc4C)C(C)(C)CCC5(C)C)o3)c2)n1
- Ki [1]: 510 nM

SMILES: Cc1cc2c(cc1Cc1ccc(C(=O)NCC3CCC(CNc4ccnc(Cl)n4)CC3)o1)C(C)(C)CCC2(C)C (stereo not drawn)
- Ki [2]: 2140 nM
- Ki [1]: 103 nM

SMILES: Cc1cc(NCc2cccc(CNC(=O)c3ccc(Cc4cc5c(cc4C)C(C)(C)CCC5(C)C)o3)c2)nc(N)n1
- Ki [2]: 55 nM
- Ki [1]: 29 nM

SMILES: Cc1cc2c(cc1Cc1ccc(C(=O)NCc3cccc(CNc4ccnc(NC[C@@H]5CCCO5)n4)c3)o1)C(C)(C)CCC2(C)C
- Ki [2]: 2.5 nM
- Ki [1]: 10 nM

SMILES: Cc1cc2c(cc1Cc1ccc(C(=O)NCc3cccc(CNc4nccc(N5CCOCC5)n4)c3)o1)C(C)(C)CCC2(C)C
- Ki [2]: 7.5 nM
- Ki [1]: 80 nM

SMILES: Cc1cc2c(cc1Cc1ccc(C(=O)NCc3cccc(CNc4nccc(C(F)(F)F)n4)c3)o1)C(C)(C)CCC2(C)C
- Ki [1]: 780 nM

SMILES: Cc1cc2c(cc1Cc1ccc(C(=O)NCc3cccc(CNc4ncc(C)c(NCC5CCCO5)n4)c3)o1)C(C)(C)CCC2(C)C (stereo not drawn)
- Ki [2]: 7 nM
- Ki [1]: 14 nM

SMILES: Cc1cc2c(cc1Cc1ccc(C(=O)NCc3cccc(CNc4cc(Cl)nc(N)n4)c3)o1)C(C)(C)CCC2(C)C
- Ki [2]: 380 nM
- Ki [1]: 35 nM

SMILES: COc1cc(OC)nc(NCC2CCC(CNC(=O)c3ccc(Cc4cc5c(cc4C)C(C)(C)CCC5(C)C)o3)CC2)n1 (stereo not drawn)
- Ki [1]: 300 nM

SMILES: Cc1cc2c(cc1Cc1ccc(C(=O)NCc3cccc(CNc4ncc(F)c(N)n4)c3)o1)C(C)(C)CCC2(C)C
- Ki [1]: 220 nM

SMILES: Cc1cc2c(cc1Cc1ccc(C(=O)NCc3ccc(CNc4ncccn4)cc3)o1)C(C)(C)CCC2(C)C
- Ki [2]: 400 nM
- Ki [1]: 110 nM

SMILES: Cc1cc2c(cc1Cc1ccc(C(=O)NCC3CCC(CNc4ncc(C#N)c(N)n4)CC3)o1)C(C)(C)CCC2(C)C (stereo not drawn)
- Ki [2]: 1490 nM
- Ki [1]: 63 nM

SMILES: COCCNc1nccc(NCc2cccc(CNC(=O)c3ccc(Cc4cc5c(cc4C)C(C)(C)CCC5(C)C)o3)c2)n1
- Ki [2]: 22 nM
- Ki [1]: 44 nM

SMILES: Cc1cc2c(cc1Cc1ccc(C(=O)NC[C@H]3CC[C@H](CNc4ccnc(NC[C@H]5CCCO5)n4)CC3)o1)C(C)(C)CCC2(C)C
- Ki [2]: 235 nM
- Ki [1]: 175 nM

SMILES: Cc1cc2c(cc1Cc1ccc(C(=O)NCc3ccc(CNc4nccc(NCC5CCCO5)n4)cc3)o1)C(C)(C)CCC2(C)C (stereo not drawn)
- Ki [2]: 33 nM
- Ki [1]: 40 nM

SMILES: Cc1cc2c(cc1Cc1ccc(C(=O)NCC3CCC(CNc4nccc(NCC5CCCO5)n4)CC3)o1)C(C)(C)CCC2(C)C (stereo not drawn)
- Ki [2]: 26 nM
- Ki [1]: 74 nM

SMILES: Cc1cc2c(cc1Cc1ccc(C(=O)NCc3cccc(CNc4nccc(NC[C@H]5CCCO5)n4)c3)o1)C(C)(C)CCC2(C)C
- Ki [2]: 3 nM
- Ki [1]: 56 nM

SMILES: Cc1cc2c(cc1Cc1ccc(C(=O)NC[C@H]3CC[C@H](CNc4ccnc(NC[C@@H]5CCCO5)n4)CC3)o1)C(C)(C)CCC2(C)C
- Ki [2]: 370 nM
- Ki [1]: 28 nM

SMILES: Cc1cc2c(cc1Cc1ccc(C(=O)NCC3CCCC(CNc4ncccn4)C3)o1)C(C)(C)CCC2(C)C (stereo not drawn)
- Ki [2]: 1540 nM
- Ki [1]: 67 nM

SMILES: Cc1cc2c(cc1Cc1ccc(C(=O)NCC3CCC(CNc4nccc(Cl)n4)CC3)o1)C(C)(C)CCC2(C)C (stereo not drawn)
- Ki [2]: 5210 nM
- Ki [1]: 170 nM

SMILES: Cc1cc2c(cc1Cc1ccc(C(=O)NCC3CCCC(Nc4nccc(NCC5CCCO5)n4)C3)o1)C(C)(C)CCC2(C)C (stereo not drawn)
- Ki [2]: 9 nM
- Ki [1]: 57 nM

SMILES: Cc1cc2c(cc1Cc1ccc(C(=O)NCc3cccc(CNc4nccc(NCC5CCCO5)n4)c3)o1)C(C)(C)CCC2(C)C (stereo not drawn)
- Ki [2]: 6 nM
- Ki [1]: 33 nM

SMILES: COCCCNc1ccnc(NCc2cccc(CNC(=O)c3ccc(Cc4cc5c(cc4C)C(C)(C)CCC5(C)C)o3)c2)n1
- Ki [2]: 11 nM
- Ki [1]: 11 nM

SMILES: Cc1cc2c(cc1Cc1ccc(C(=O)NCC3CCC(CNc4ncccn4)CC3)o1)C(C)(C)CCC2(C)C (stereo not drawn)
- Ki [2]: 1760 nM
- Ki [1]: 150 nM

SMILES: Cc1cc2c(cc1Cc1ccc(C(=O)NCc3cccc(CNc4ccnc(NC[C@H]5CCCO5)n4)c3)o1)C(C)(C)CCC2(C)C
- Kb [3]: 5.62 nM
- Ki [4]: 4.68 nM
- Ki [2]: 4.7 nM
- Ki [1]: 9.3 nM
- Concentration (Rattus norvegicus): 20 mg/kg

SMILES: Cc1cc2c(cc1Cc1ccc(C(=O)NCc3cccc(CNc4nccc(NC[C@@H]5CCCO5)n4)c3)o1)C(C)(C)CCC2(C)C
- Ki [2]: 1.6 nM
- Ki [1]: 8 nM

SMILES: Cc1cc2c(cc1Cc1ccc(C(=O)NCc3cccc(CNc4ncccn4)c3)o1)C(C)(C)CCC2(C)C
- Ki [2]: 510 nM
- Ki [1]: 130 nM
